Columns and labels:
Homo sapiens [1] = assay: Antidiabetic activity in human assessed as inhibition of exogenous glucagon-stimulated glucose excursion at 1000 mg, po qd relative to control; format: functional
Homo sapiens [2] = assay: Antidiabetic activity in human assessed as inhibition of exogenous glucagon-stimulated glucose excursion at 200 mg, po qd relative to control; format: functional
Glucagon receptor [3] = molecular target: Glucagon receptor (Mus musculus, UniProt Q61606); format: cell membranes, Liver, Membrane
Description: Displacement of [125I]-glucagon from GCGR in mouse liver membranes after 60 mins by scintillation counting analysis

Glucagon receptor [4] = molecular target: T1, Glucagon receptor (Homo sapiens, UniProt P47871); assay: biochemical; format: cell-based, CHO
Description: Displacement of [125I]-glucagon from recombinant human GCGR expressed in CHO cells after 60 mins by scintillation counting analysis

Glucagon receptor [5] = molecular target: T1, Glucagon receptor; assay: Antagonist activity at human GCGR expressed in CHO cells assessed as inhibition of glucagon-stimulated cAMP production preincubated for 30 mins followed by glucagon induction measured after 45 mins by LANCE assay; format: functional, cell-based
[6] = molecular target: T2, Glucagon-like peptide 1 receptor (Homo sapiens, UniProt P43220); assay: Antagonist activity at human GLP-1R expressed in CHO cells assessed as inhibition of GLP-1-stimulated cAMP production preincubated for 30 mins followed by GLP-1 induction measured after 45 mins by LANCE assay; format: functional, cell-based
[7] = molecular target: T2, Glucagon-like peptide 1 receptor; details: CHO, at 10 µM
Description: Antagonist activity at human GLP-1R expressed in CHO cells assessed as inhibition of GLP-1-stimulated cAMP production at 10 uM preincubated for 30 mins followed by GLP-1 induction measured after 45 mins by LANCE assay relative to control

T2 sequence (P43220 whole entry): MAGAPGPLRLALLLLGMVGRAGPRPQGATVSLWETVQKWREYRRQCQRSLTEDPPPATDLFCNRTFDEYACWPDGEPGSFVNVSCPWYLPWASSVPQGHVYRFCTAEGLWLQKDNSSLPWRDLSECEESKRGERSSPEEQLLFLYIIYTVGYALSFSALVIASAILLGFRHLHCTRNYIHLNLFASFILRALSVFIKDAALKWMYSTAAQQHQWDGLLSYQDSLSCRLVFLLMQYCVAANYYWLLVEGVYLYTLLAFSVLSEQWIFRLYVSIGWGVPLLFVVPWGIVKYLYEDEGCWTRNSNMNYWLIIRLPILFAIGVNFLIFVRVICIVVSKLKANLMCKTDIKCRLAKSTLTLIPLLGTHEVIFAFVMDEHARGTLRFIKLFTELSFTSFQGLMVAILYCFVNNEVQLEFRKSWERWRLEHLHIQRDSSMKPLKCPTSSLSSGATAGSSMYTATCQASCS
T1 sequence (P47871 whole entry): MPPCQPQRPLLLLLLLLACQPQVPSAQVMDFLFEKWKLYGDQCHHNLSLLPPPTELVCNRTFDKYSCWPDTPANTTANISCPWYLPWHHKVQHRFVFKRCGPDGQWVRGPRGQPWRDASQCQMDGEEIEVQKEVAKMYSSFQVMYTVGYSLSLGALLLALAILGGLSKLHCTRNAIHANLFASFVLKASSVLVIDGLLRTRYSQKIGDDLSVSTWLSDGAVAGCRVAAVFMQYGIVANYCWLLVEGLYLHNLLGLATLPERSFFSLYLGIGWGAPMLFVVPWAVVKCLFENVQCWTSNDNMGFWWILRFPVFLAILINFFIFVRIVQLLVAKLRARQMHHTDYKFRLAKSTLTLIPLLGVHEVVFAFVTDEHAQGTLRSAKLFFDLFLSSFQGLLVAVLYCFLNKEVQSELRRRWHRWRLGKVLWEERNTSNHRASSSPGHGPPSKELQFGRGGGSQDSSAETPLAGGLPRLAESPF
Chain of Glucagon receptor (Mus musculus, UniProt Q61606) (Q61606 whole entry): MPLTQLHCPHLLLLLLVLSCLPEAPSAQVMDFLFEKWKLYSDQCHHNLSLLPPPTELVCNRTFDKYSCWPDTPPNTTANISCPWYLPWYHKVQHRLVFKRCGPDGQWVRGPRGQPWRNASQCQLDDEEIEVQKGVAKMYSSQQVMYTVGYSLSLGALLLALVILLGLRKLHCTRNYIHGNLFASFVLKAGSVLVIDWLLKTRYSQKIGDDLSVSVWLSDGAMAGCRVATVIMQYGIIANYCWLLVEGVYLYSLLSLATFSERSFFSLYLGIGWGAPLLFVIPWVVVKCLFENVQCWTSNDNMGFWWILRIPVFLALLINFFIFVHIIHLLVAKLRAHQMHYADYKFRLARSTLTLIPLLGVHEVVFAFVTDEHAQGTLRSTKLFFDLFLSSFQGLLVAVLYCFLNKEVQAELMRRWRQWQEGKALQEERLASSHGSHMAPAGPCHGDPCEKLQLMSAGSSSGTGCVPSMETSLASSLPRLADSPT

SMILES | inhibition (INH) (Homo sapiens [1]) | inhibition (INH) (Homo sapiens [2]) | IC50 (Glucagon receptor [3]) | IC50 (Glucagon receptor [4]) | IC50 (Glucagon receptor [5]) | IC50 [6] | inhibition [7]
COc1ccc2cc(-c3cc(-c4cc(Cl)cc(Cl)c4)nn3[C@@H](C)c3ccc(C(=O)NCCC(=O)O)cc3)ccc2c1 [MK-0893] | 100% | 59% | – | – | – | – | –
CCCc1c(C(C)C)cc(C(C)C)c(C(C)O)c1-c1ccc(F)cc1 (single isomer, unassigned; (+)) | 100% | 59% | – | – | – | – | –
C[C@H](c1ccc(C(=O)NCc2nnn[nH]2)cc1)N1C(=O)C(c2cc(Cl)cc(Cl)c2)=N[C@]12CC[C@@H](C(C)(C)C)CC2 | – | – | 400 nM | 130 nM | 180 nM | > 10000 nM | 9%

Source: ChEMBL document CHEMBL3232855, “The discovery of N-((2H-tetrazol-5-yl)methyl)-4-((R)-1-((5r,8R)-8-(tert-butyl)-3-(3,5-dichlorophenyl)-2-oxo-1,4-diazaspiro[4.5]dec-3-en-1-yl)-4,4-dimethylpentyl)benzamide (SCH 900822): a potent and selective glucagon receptor antagonist” (J Med Chem, 2014)
